Test results reported in patent publication US7968720B2, “Secondary amines as renin inhibitors” (Actelion Pharmaceuticals Ltd., priority 2006, dated 2011).
Structures can show the parent of a compound that is named as a salt.

biological target: T1, recombinant human renin (Homo sapiens, UniProt P00797); test: Primary renin inhibition assay: IC50 in buffer, 384 well MTP (AngI measured by EIA); type: biochemical; details: human tetradecapeptide (1-14) substrate, incubated at 37° C. for 3 h, AngI quantified by EIA
T1 sequence (P00797 67-406): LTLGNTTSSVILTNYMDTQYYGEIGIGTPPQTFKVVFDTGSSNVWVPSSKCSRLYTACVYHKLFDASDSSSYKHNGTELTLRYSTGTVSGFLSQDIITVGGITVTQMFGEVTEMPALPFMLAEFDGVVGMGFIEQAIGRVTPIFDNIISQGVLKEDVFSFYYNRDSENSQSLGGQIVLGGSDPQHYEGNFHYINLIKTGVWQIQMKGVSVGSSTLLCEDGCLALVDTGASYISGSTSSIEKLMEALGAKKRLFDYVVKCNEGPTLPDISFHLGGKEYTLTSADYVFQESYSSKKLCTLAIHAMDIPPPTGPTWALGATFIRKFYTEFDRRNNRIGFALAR
Experimental: 1. Enzyme Immuno Assay (EIA) to Estimate AngI Accumulation and Renin Inhibition
1.1 Preparation of AngI-BSA Conjugate
1.3 mg (1 μmol) of AngI [1-10 (Bachem, H-1680)] and 17 mg (0.26 μmol) of BSA (Fluka, 05475) were dissolved in 4 mL of 0.1M phosphate buffer, pH 7.4, after which 2 mL of a 1:100 dilution of glutaraldehyde in H2O (Sigma G-5882) was added dropwise. The mixture was incubated overnight at 4° C., then dialyzed against 2 liters of 0.9% NaCl, twice for 4 h at rt, followed by dialysis against 2 liters of PBS 1× overnight at rt. The solution was then filtered with a Syringe filter, 0.45 μm (Nalgene, Cat. No. 194-2545). The conjugate can be stored in polypropylene tubes in 0.05% sodium azide at 4° C. for at least 12 months.
1.2 Preparation of BSA-AngI Coated MTP
Microtiter plates (MPT384, MaxiSorp™, Nunc) were incubated overnight at 4° C. with 80 μl of AngI (1-10)/BSA conjugate, diluted 1:100'000 in PBS 1× in a teflon beaker (exact dilution dependent on batch of conjugate), emptied, filled with 90 μl of blocking solution [0.5% BSA (Sigma A-2153) in PBS 1×, 0.02% NaN3], and incubated for at least 2 h at rt, or overnight at 4° C. 96 well MTP (MaxiSorp™, Nunc) were coated with 200 μl conjugate and blocked with 250 μl blocking solution as above, except that the blocking solution contained 3% BSA. The plates can be stored in blocking solution at 4° C. for 1 month.
1.3 AngI-EIA in 384 Well MTP
The AngI (1-10)/BSA coated MTP were washed 3 times with wash buffer (PBS 1×, 0.01% Tween 20) and filled with 75 μl of primary antibody solution (anti-AngI antiserum, pre-diluted 1:10 in horse serum), diluted to a final concentration of 1:100'000 in assay buffer (PBS 1×, 1 mM EDTA, 0.1% BSA, pH 7.4). 5 μl of the renin reaction (or standards in assay buffer) (see below) were added to the primary antibody solution and the plates were incubated overnight at 4° C. After the incubation the plates were washed 3 times with wash buffer and incubated with secondary antibody [anti-rabbit IgG, linked to horseradish peroxidase (Amersham Bioscience, NA 934V), diluted 1:2'000 in wash buffer] for 2 h at rt. The plates were washed 3 times with wash buffer and then incubated for 1 h at rt with substrate solution [1.89 mM ABTS (2,2′-azino-di-(3-ethyl-benzthiazolinsulfonate)] (Roche Diagnostics, 102 946) and 2.36 mM H2O2 [30%, (Fluka, 95300] in substrate buffer (0.1M sodium acetate, 0.05M sodium dihydrogen phosphate, pH 4.2). The OD of the plate was read at 405 nm in a microplate reader (FLUOStar Optima from BMG). The production of AngI during the renin reaction was quantified by comparing the OD of the sample with the OD of a standard curve of AngI(1-10), measured in parallel.
2. Primary Renin Inhibition Assay: IC50 in Buffer, 384 Well MTP
The renin assay was adapted from an assay described before (Fischli W. et al., Hypertension, 1991, 18:22-31) and consists of two steps: in the first step, recombinant human renin is incubated with its substrate (commercial human tetradecapeptide renin substrate) to create the product Angiotensin I (AngI). In the second step, the accumulated AngI is measured by an immunological assay (enzyme immuno assay, EIA). The detailed description of this assay is found below. The EIA is very sensitive and well suited for renin activity measurements in buffer or in plasma. Due to the low concentration of renin used in this assay (2 fmol per assay tube or 10 pM) it is possible to measure inhibitor affinities in this primary assay down to low pM concentration.
Recombinant human renin (3 pg/μl) in assay buffer (PBS 1×, 1 mM EDTA, 0.1% BSA, pH 7.4), human tetradecapeptide (1-14) substrate (Bachem, M-1120) [5 μM in 10 mM HCl], hydroxyquinoline sulfate (Fluka, 55100) [30 mM in H2O] and assay buffer were premixed at 4° C. at a ratio of 100:30:10:145. 47.5 μl per well of this premix was transferred into polypropylene plates (MTP384, Nunc). […]

SMILES | IC50 [pM]
Cc1cc(Cl)c(O[C@@H]2CCN(c3ccc([C@H]4CCNC[C@@H]4C(=O)N(Cc4cc(CNC(=O)CC(F)(F)F)ccc4Cl)C4CC4)cn3)C2)c(Cl)c1 [Example 67, (3′R,4′S)-6-[(R)-3-(2,6-Dichloro-4-methyl-phenoxy)-pyrrolidin-1-yl]-1′,2′,3′,4′,5′,6′-hexahydro-[3,4′]bipyridinyl-3′-carboxylic acid {2-chloro-5-[(3,3,3-trifluoro-propionylamino)-methyl]-benzyl}-cyclopropyl-amide] | 630
CNC(=O)OCCc1ccc(Cl)c(CN(C(=O)[C@H]2CNCC[C@@H]2c2ccc(N3CC[C@@H](Oc4c(Cl)cc(C)cc4Cl)C3)nc2)C2CC2)c1 [Example 110, Methyl-carbamic Acid 2-{4-chloro-3-[(cyclopropyl-{(3′R,4′S)-6-[(R)-3-(2,6-dichloro-4-methyl-phenoxy)-pyrrolidin-1-yl]-1′,2′,3′,4′,5′,6′-hexahydro-[3,4′]bipyridinyl-3′-carbonyl}-amino)-methyl]-phenyl}-ethyl Ester] | 390
COCCCc1ccc(Cl)c(CN(C(=O)C2=C(c3ccc(OCCOc4c(Cl)cc(C)cc4Cl)nc3)CCNC2)C2CC2)c1 [Example 18, 6-[2-(2,6-Dichloro-4-methyl-phenoxy)-ethoxy]-1′,2′,5′,6′-tetrahydro-[3,4′]bipyridinyl-3′-carboxylic acid [2-chloro-5-(3-methoxy-propyl)-benzyl]-cyclopropyl-amide] | 500
COCCCc1ccc(Cl)c(CN(C(=O)C2=C(c3ccc(OCCOc4c(Cl)cc(C)cc4Cl)cc3)C[C@@H]3CN(C(=N)N)C[C@H]2N3)C2CC2)c1 [Example 11, (1R,5S)-3-Carbamimidoyl-7-{4-[2-(2,6-dichloro-4-methyl-phenoxy)-ethoxy]-phenyl}-3,9-diaza-bicyclo[3.3.1]non-6-ene-6-carboxylic acid cyclopropyl-[2-chloro-5-(3-methoxy-propyl)-benzyl]-amide Hydrochloride Salt] | 300
Cc1cc(Cl)c(O[C@@H]2CCN(c3ccc([C@H]4CCNC[C@@H]4C(=O)N(Cc4cc(CNC(=O)C5CC5)ccc4Cl)C4CC4)cn3)C2)c(Cl)c1 [Example 93, (3′R,4′S)-6-[(R)-3-(2,6-Dichloro-4-methyl-phenoxy)-pyrrolidin-1-yl]-1′,2′,3′,4′,5′,6′-hexahydro-[3,4′]bipyridinyl-3′-carboxylic acid {2-chloro-5-[(cyclopropanecarbonyl-amino)-methyl]-benzyl}-cyclopropyl-amide] | 380
COCCCc1cc(CN(C(=O)C2=C(c3ccc(OCCOc4c(Cl)cc(C)cc4Cl)nc3)C[C@@H]3CNC[C@H]2N3)C2CC2)c(Cl)cn1 [Example 42, (1R,5S)-7-{6-[2-(2,6-Dichloro-4-methyl-phenoxy)-ethoxy]-pyridin-3-yl}-3,9-diaza-bicyclo[3.3.1]non-6-ene-6-carboxylic acid [5-chloro-2-(3-methoxy-propyl)-pyridin-4-ylmethyl]-cyclopropyl-amide] | 260
COCCCc1ccc(Cl)c(CN(C(=O)C2=C(c3ccc(OCCOc4c(Cl)cc(C)cc4Cl)cc3)C[C@@H]3CN(C(=O)NC4CC4)C[C@H]2N3)C2CC2)c1 [Example 13, (1R,5S)-7-{4-[2-(2,6-Dichloro-4-methyl-phenoxy)-ethoxy]-phenyl}-3,9-diaza-bicyclo[3.3.1]non-6-ene-3,6-dicarboxylic acid 3-cyclopropylamide 6-{cyclopropyl-[2-chloro-5-(3-methoxy-propyl)-benzyl]-amide}] | 800

Results, then the compound that gave them:

IC50 [pM] | SMILES
140 | COCCc1ccc(Cl)c(CN(C(=O)[C@@H]2[C@@H](c3ccc(OCCOc4c(Cl)cc(C)cc4Cl)cc3)C[C@@H]3CC[C@H]2N3)C2CC2)c1 [Example 26, (1R,2R,3S,5S)-3-{4-[2-(2,6-Dichloro-4-methyl-phenoxy)-ethoxy]-phenyl}-8-aza-bicyclo[3.2.1]octane-2-carboxylic acid [2-chloro-5-(2-methoxy-ethyl)-benzyl]-cyclopropyl-amide]
260 | COCCc1ccc(Cl)c(CN(C(=O)[C@@H]2[C@@H](c3ccc(OCc4cc(-c5c(F)ccc(F)c5Cl)no4)cc3)C[C@@H]3CC[C@H]2N3)C2CC2)c1 [Example 60, (1R,2R,3S,5S)-3-{4-[3-(2-Chloro-3,6-difluoro-phenyl)isoxazol-5-ylmethoxy]-phenyl}-8-aza-bicyclo[3.2.1]octane-2-carboxylic acid [2-chloro-5-(2-methoxy-ethyl)benzyl]-cyclopropyl-amide]
220 | O=C([C@H]1CNCC[C@@H]1c1ccc(OCc2cc(-c3c(F)ccc(F)c3Cl)no2)cc1)N(Cc1cc(CNCC(F)F)ccc1Cl)C1CC1 [Example 77, (3R,4S)-4-{4-[3-(2-Chloro-3,6-difluoro-phenyl)isoxazol-5-ylmethoxy]-phenyl}-piperidine-3-carboxylic acid {2-chloro-5-[(2,2-difluoro-ethylamino)-methyl]-benzyl}-cyclopropyl-amide]
100 | COCCCc1cc(CN(C(=O)C2=C(c3ccc(OCc4cc(-c5c(F)ccc(F)c5Cl)no4)cc3)CCNC2)C2CC2)c(Cl)cn1 [Example 34, 4-{4-[3-(2-Chloro-3,6-difluoro-phenyl)-isoxazol-5-ylmethoxy]-phenyl}-1,2,5,6-tetrahydro-pyridine-3-carboxylic acid [5-chloro-2-(3-methoxy-propyl)-pyridin-4-ylmethyl]-cyclopropyl-amide]
80 | CNC(=O)CCc1ccc(Cl)c(CN(C(=O)[C@H]2CNCC[C@@H]2c2ccc(OCc3cc(-c4c(F)ccc(F)c4Cl)no3)cc2)C2CC2)c1 [Example 102, (3R,4S)-4-{4-[3-(2-Chloro-3,6-difluoro-phenyl)isoxazol-5-ylmethoxy]-phenyl}-piperidine-3-carboxylic Acid [2-chloro-5-(2-methylcarbamoyl-ethyl)benzyl]-cyclopropyl-amide]
200 | COCCCc1ccc(Cl)c(CN(C(=O)C2=C(c3ccc(CCOc4c(Cl)cc(C)cc4Cl)cc3)C[C@@H]3CNC[C@H]2N3)C2CC2)c1 (racemic) [Example 1, (rac.)-(1R*,5S*)-7-{4-[2-(2,6-Dichloro-4-methyl-phenoxy)-ethyl]-phenyl}-3,9-diaza-bicyclo[3.3.1]non-6-ene-6-carboxylic acid [2-chloro-5-(3-methoxy-propyl)-benzyl]-cyclopropyl-amide]
240 | COCCCc1ccc(Cl)c(CN(C(=O)C2=C(c3ccc(OCc4cc(-c5c(F)ccc(F)c5Cl)no4)cc3)C[C@@H]3CN(C(C)=O)C[C@H]2N3)C2CC2)c1 [Example 50, (1R,5S)-3-Acetyl-7-{4-[3-(2-chloro-3,6-difluoro-phenyl)-isoxazol-5-ylmethoxy]-phenyl}-3,9-diaza-bicyclo[3.3.1]non-6-ene-6-carboxylic acid [2-chloro-5-(3-methoxy-propyl)benzyl]-cyclopropyl-amide]
